Our source for the melting point values is patent US6908947B2, “Sulfonamide-substituted fused 7-membered ring compounds, their use as a medicament, and pharmaceutical preparations comprising them” (Aventis Pharma Deutschland GmbH, priority 1997, dated 2005).

Molecules are shown by their SMILES.

As a reminder, the melting point is the temperature, or range, at which the solid turns liquid. `O=S(=O)(N[C@@H]1c2ccccc2CCC[C@H]1O)c1ccccc1` (relative stereo) [Example 16, trans-5-(N-Phenylsulfonylamino)-6,7,8,9-tetrahydro-5H-benzocyclohepten-6-ol] returned a melting point of 128 to 128.2 °C.
Under `Cc1ccc(S(=O)(=O)N[C@@H]2c3ccccc3CCC[C@H]2O)cc1` (relative stereo) [Example 17, trans-5-[N-(4-Methylphenyl)-sulfonylamino]-6,7,8,9-tetrahydro-5H-benzocyclo hepten-6-ol] stands 124.5 to 125.1 °C.
`COc1ccc(S(=O)(=O)N[C@@H]2c3ccccc3CCC[C@H]2O)cc1` (relative stereo) [Example 18, trans-5-[N-(4-Methoxyphenyl)-sulfonylamino]-6,7,8,9-tetrahydro-5H-benzocyclohepten-6-ol]: the melting point was 140 to 141 °C.
Under `O=S(=O)(N[C@@H]1c2ccccc2CCC[C@H]1O)c1ccc(Cl)cc1` (relative stereo) [Example 19, trans-5-[N-(4-Chlorophenyl)-sulfonylamino]-6,7,8,9-tetrahydro-5H-benzocyclohepten-6-ol] stands 172 to 173 °C.
The result for `CCc1ccc(S(=O)(=O)N[C@@H]2c3cc([N+](=O)[O-])ccc3CCC[C@H]2O)cc1` (relative stereo) [Example 20, trans-5-[N-(4-Ethylphenyl)-sulfonylamino]-3-nitro-6,7,8,9-tetrahydro-5H-benzocyclohepten-6-ol] reads 159 to 161 °C; that for `CN(C1CCCOc2ccccc21)S(C)(=O)=O` (stereo not drawn) [Example 8, 5-(N-Methyl-N-methylsulfonylamino)-2,3,4,5-tetrahydro-1-benzoxepine], 143 to 145 °C.
